The source of these data is patent US20250171495A1, “MUTLI-TARGETED SERINE PROTEASE INHIBITORS FOR TREATMENT OF CANCER AND VIRAL INFECTION” (Washington University, priority 2023, published 2025).

Assay type in all cases: biochemical
One assay has as its target T1, HGFA (Homo sapiens, UniProt Q04756).
T1 construct: purchased R&D Systems 1514-SE-010
T1 sequence (Q04756 408-655 limits assumed): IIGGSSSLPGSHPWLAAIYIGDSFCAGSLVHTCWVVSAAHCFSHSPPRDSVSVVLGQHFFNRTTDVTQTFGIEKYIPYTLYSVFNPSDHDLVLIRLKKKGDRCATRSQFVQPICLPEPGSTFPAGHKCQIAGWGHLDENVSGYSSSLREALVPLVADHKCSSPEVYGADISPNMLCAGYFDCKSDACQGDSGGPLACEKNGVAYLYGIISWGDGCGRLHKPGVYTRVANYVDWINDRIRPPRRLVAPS
T1 sequence (Q04756 373-407 partner limits assumed): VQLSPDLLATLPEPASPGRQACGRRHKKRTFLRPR
In words: Fluorogenic kinetic enzyme inhibitor assay, HGFA.

In another assay the target is T2, matriptase (Homo sapiens, UniProt Q9Y5Y6).
T2 construct: purchased R&D Systems 3946-SEB-010
T2 sequence (Q9Y5Y6 615-855 limits assumed): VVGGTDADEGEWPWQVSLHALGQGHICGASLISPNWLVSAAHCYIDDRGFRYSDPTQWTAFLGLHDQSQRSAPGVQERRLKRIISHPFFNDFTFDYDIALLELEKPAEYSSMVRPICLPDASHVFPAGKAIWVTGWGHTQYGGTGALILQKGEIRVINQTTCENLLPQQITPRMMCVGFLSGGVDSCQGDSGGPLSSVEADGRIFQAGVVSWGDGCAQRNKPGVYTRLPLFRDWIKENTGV
The assay is described as follows: Fluorogenic kinetic enzyme inhibitor assay, matriptase.

A further assay has as its target T3, hepsin (Homo sapiens, UniProt P05981).
T3 construct: purchased R&D Systems 4776-SE-010
In words: Fluorogenic kinetic enzyme inhibitor assay, hepsin.

In another assay the target is TMPRSS2 (Homo sapiens, UniProt O15393). The assay is described as follows: Fluorogenic kinetic enzyme inhibitor assay, TMPRSS2. On the set-up: purchased Cusabio Technology CSB-YP023924HU.
Chain of TMPRSS2 (O15393 106-492 limits assumed): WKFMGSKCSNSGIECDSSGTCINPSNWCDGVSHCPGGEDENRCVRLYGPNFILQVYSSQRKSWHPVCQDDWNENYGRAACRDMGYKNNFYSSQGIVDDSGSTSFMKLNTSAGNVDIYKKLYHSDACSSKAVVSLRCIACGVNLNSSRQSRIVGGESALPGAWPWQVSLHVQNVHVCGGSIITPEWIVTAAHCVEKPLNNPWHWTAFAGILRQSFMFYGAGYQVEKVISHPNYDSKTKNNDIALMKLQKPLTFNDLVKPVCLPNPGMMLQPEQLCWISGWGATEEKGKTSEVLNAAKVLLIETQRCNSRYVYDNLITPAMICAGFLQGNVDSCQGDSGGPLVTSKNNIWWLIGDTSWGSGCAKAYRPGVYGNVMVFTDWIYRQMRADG
In a further assay the target is T4, Factor Xa (Homo sapiens, UniProt P00742).
T4 construct: TMPRSS2; Matriptase; Hepsin; HGFA; Thrombin; Factor Xa
T4 sequence (P00742 235-488 limits assumed): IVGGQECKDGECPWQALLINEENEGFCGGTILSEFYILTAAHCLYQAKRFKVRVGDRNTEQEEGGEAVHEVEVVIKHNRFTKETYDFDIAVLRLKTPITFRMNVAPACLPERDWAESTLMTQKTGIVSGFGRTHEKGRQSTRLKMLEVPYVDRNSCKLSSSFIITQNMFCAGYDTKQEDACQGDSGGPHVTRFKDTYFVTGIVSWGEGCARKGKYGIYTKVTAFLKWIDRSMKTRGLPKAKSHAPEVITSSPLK
T4 sequence (P00742 41-179 partner limits assumed): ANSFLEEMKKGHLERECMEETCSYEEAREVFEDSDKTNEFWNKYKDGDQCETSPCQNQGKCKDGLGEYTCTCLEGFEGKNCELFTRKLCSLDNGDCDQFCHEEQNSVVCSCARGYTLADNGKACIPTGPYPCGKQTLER
The assay is described as follows: Fluorogenic assay, Factor Xa. As to conditions: read-out: Factor Xa IC50.

Setting [1] is: 30 min incubation, Boc-QLR-AMC at Km, read-out: HGFA IC50.
Where [2] appears, read: 30 min incubation, Boc-QAR-AMC at Km, read-out: TMPRSS2 IC50.
The mark [3] stands for this setting: 30 min incubation, Boc-QAR-AMC at Km, read-out: Hepsin IC50.

Read-outs that look alike come from different tables or passages of the source.

T3 sequence (P05981 163-417 limits assumed): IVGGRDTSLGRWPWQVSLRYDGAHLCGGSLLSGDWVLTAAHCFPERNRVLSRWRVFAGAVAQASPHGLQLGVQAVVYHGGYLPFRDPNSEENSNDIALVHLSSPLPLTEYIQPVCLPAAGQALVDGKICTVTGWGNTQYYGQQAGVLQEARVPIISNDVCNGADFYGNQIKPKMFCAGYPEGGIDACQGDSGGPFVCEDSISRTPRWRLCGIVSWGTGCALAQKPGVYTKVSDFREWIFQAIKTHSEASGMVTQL
T3 sequence (P05981 1-162 partner limits assumed): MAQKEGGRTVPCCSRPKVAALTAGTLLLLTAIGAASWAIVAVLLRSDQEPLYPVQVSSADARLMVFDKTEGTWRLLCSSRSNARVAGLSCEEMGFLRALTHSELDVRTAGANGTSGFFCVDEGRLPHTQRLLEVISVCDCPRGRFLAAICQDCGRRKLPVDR

What is called IC50 is the point on the concentration scale where inhibition reaches its midpoint. In the case of `CCC(C)[C@H](NC(C)=O)C(=O)N[C@@H](CCC(N)=O)C(=O)N[C@@H](Cc1ccccc1)C(=O)N[C@@H](CCCNC(=N)N)C(=O)c1nc2ccccc2s1` (stereo partly drawn) [MM3116, N-[(S)-1-[N-(S)-1-[(1,3-benzothiazol-2-yl)carbonyl]-4-guanidinobutylcarbamoyl]-2-phenylethyl](S)-2-[(2S)-2-acetylamino-3-methylvalerylamino]glutaramide], the IC50 on HGFA (read-out: HGFA IC50) is 30 nM; at matriptase (read-out: Matriptase IC50), 0.92 nM; at hepsin (read-out: Hepsin IC50), 0.14 nM; at TMPRSS2 (read-out: TMPRSS2 IC50) it was 1.73 nM; on Factor Xa, 792 nM.
As for `CC(=O)NCC(=O)N[C@@H](CCC(N)=O)C(=O)N[C@@H](Cc1ccccc1)C(=O)N[C@@H](CCCNC(=N)N)C(=O)c1nc2ccccc2s1` [MM3122, N-[(S)-1-[N-(S)-1-[(1,3-benzothiazol-2-yl)carbonyl]-4-guanidinobutylcarbamoyl]-2-phenylethyl](S)-2-[(acetylaminomethyl)carbonylamino]glutaramide], the IC50 was found to be 32.5 nM against HGFA; 0.314 nM at matriptase (read-out: Matriptase IC50); 0.194 nM on hepsin (read-out: Hepsin IC50); 0.03 nM at TMPRSS2 (read-out: TMPRSS2 IC50); 700 nM on Factor Xa.
In the case of `CC(=O)N1CCC[C@H]1C(=O)N[C@@H](CCC(N)=O)C(=O)N[C@@H](Cc1ccccc1)C(=O)N[C@@H](CCCNC(=N)N)C(=O)c1nc2ccccc2s1` [MM3123, N-[(S)-1-[N-(S)-1-[(1,3-benzothiazol-2-yl)carbonyl]-4-guanidinobutylcarbamoyl]-2-phenylethyl](S)-2-[(S)-1-acetyl-2-pyrrolidinylcarbonylamino] glutaramide], the IC50 on HGFA (read-out: HGFA IC50) turned out to be 75 nM; on matriptase (read-out: Matriptase IC50) it was 0.316 nM; at hepsin, 0.135 nM; on TMPRSS2 (read-out: TMPRSS2 IC50), 0.06 nM; on Factor Xa it was 199 nM.
For the molecule `CC(=O)N[C@@H](CCC(N)=O)C(=O)N[C@@H](Cc1ccccc1)C(=O)N[C@@H](CCCNC(=N)N)C(=O)c1nc2ccccc2s1` [MM3144, N-[(S)-1-[N-(S)-1-[(1,3-benzothiazol-2-yl)carbonyl]-4-guanidinobutylcarbamoyl]-2-phenylethyl](S)-2-acetylaminoglutaramide], the figures for the IC50 at HGFA (setting [1]) and on Factor Xa were 14 nM and 4.5 nM, respectively.
For the molecule `CC(=O)N[C@H]1Cc2ccc(cc2)OC/C=C\CNC(=O)CC[C@@H](C(=O)N[C@@H](CCCNC(=N)N)C(=O)c2nc3ccccc3s2)NC(=O)[C@H](CC(C)C)NC1=O` [VD4018, N-[(S)-1-[(1,3-benzothiazol-2-yl)carbonyl]-4-guanidinobutyl]-(4Z,11S,14S,17S)-17-acetylamino-14-isobutyl-8,13,16-trioxo-2-oxa-7,12,15-triazabicyclo[17.2.2]tricosa-1(21),4,19,22-tetraene-11-carboxamide], the IC50 worked out at 6500 nM on HGFA (setting [1]), 2.48 nM on TMPRSS2 (setting [2]) and 12400 nM on Factor Xa.
Consider `CC(=O)N[C@H]1Cc2ccc(cc2)OC/C=C\CNC(=O)C[C@@H](C(=O)N[C@@H](CCCNC(=N)N)C(=O)c2nc3ccccc3s2)NC(=O)[C@H](CC(C)C)NC1=O` [VD4054, N-[(S)-1-[(1,3-benzothiazol-2-yl)carbonyl]-4-guanidinobutyl]-(4Z,10S,13S,16S)-16-acetylamino-13-isobutyl-8,12,15-trioxo-2-oxa-7,11,14-triazabicyclo[16.2.2]docosa-1(20),4,18,21-tetraene-10-carboxamide], for which the IC50 was more than 20000 nM on HGFA (read-out: HGFA IC50); 44 nM on matriptase (read-out: Matriptase IC50); 0.99 nM at hepsin (setting [3]); 21.6 nM on TMPRSS2 (read-out: TMPRSS2 IC50); 3180 nM on Factor Xa.
In the case of `CC(=O)N[C@H]1Cc2ccc(cc2)OCCCC[C@@H](C(=O)N[C@@H](CCCNC(=N)N)C(=O)c2nc3ccccc3s2)NC(=O)[C@@H](Cc2c[nH]c3ccccc23)NC1=O` [VD4162B, N-[(S)-1-[(1,3-benzothiazol-2-yl)carbonyl]-4-guanidinobutyl]-(7S,10R,13S)-13-acetylamino-10-[(3-indolyl)methyl]-9,12-dioxo-2-oxa-8,11-diazabicyclo[13.2.2]nonadeca-1(17),15,18-triene-7-carboxamide], the IC50 worked out at 3.35 nM at HGFA; 2.88 nM on matriptase (30 min incubation, Boc-QAR-AMC at Km, read-out: Matriptase IC50); 0.538 nM at hepsin (setting [3]); 4.75 nM on TMPRSS2 (setting [2]).
As for `CC(=O)N[C@H]1Cc2ccc(cc2)Oc2cccc(c2)C[C@@H](C(=O)N[C@H](CCCNC(=N)N)C(=O)c2nc3ccccc3s2)NC(=O)[C@H](CC(C)C)NC1=O` [VD5064A, N-{(R)-1-[(1,3-benzothiazol-2-yl)carbonyl]-4-guanidinobutyl}-(9S,12S,15S)-15-acetylamino-12-isobutyl-11,14-dioxo-2-oxa-10,13-diazatricyclo[15.2.2.1^3,^7]docosa-1(19),3,5,7(22),17,20-hexaene-9-carboxamide], the IC50 was determined as 550 nM on HGFA (read-out: HGFA IC50), 680 nM on matriptase, 2.6 nM on hepsin (read-out: Hepsin IC50) and 261 nM on TMPRSS2 (read-out: TMPRSS2 IC50).
On to `CC(=O)N[C@H]1Cc2ccc(cc2)Oc2ccc(cc2)C[C@@H](C(=O)N[C@H](CCCNC(=N)N)C(=O)c2nc3ccccc3s2)NC(=O)[C@H](CC(C)C)NC1=O` [VD5076A, N-[(R)-1-[(1,3-benzothiazol-2-yl)carbonyl]-4-guanidinobutyl]-(8S,11S,14S)-14-acetylamino-11-isobutyl-10,13-dioxo-2-oxa-9,12-diazatricyclo[14.2.2.2^3,^6]docosa-1(18),3,5,16,19,21-hexaene-8-carboxamide], for which the IC50 at HGFA (read-out: HGFA IC50) worked out at 2900 nM; on matriptase, 2370 nM; on hepsin (read-out: Hepsin IC50) it was 55.3 nM; on TMPRSS2 (read-out: TMPRSS2 IC50) it was 489 nM.
With `CC(=O)N[C@H]1Cc2cccc(c2)Oc2ccc(cc2)C[C@@H](C(=O)N[C@H](CCCNC(=N)N)C(=O)c2nc3ccccc3s2)NC(=O)[C@H](CC(C)C)NC1=O` [VD5123A, N-{(R)-1-[(1,3-benzothiazol-2-yl)carbonyl]-4-guanidinobutyl}-(9S,12S,15S)-9-acetylamino-12-isobutyl-10,13-dioxo-2-oxa-11,14-diazatricyclo [15.2.2.1^3,^7]docosa-1(19),3(22),4,6,17,20-hexaene-15-carboxamide], the IC50 at HGFA (read-out: HGFA IC50) stood at 17300 nM; at matriptase it was 478 nM; at hepsin (read-out: Hepsin IC50) it was 146 nM; on TMPRSS2 (read-out: TMPRSS2 IC50), 1.78 nM.
Regarding `CC(=O)N[C@H]1Cc2cccc(c2)Oc2ccc(cc2)C[C@@H](C(=O)N[C@@H](CCCNC(=N)N)C(=O)c2nc3ccccc3s2)NC(=O)[C@H](CC(C)C)NC1=O` [VD5123B, N-[(S)-1-[(1,3-benzothiazol-2-yl)carbonyl]-4-guanidinobutyl]-(9S,12S,15S)-9-acetylamino-12-isobutyl-10,13-dioxo-2-oxa-11,14-diazatricyclo[15.2.2.1^3,^7] docosa-1(19),3,5,7(22), 17,20-hexaene-15-carboxamide], the IC50 on HGFA (setting [1]) is 3980 nM; on matriptase (read-out: Matriptase IC50), 140 nM; on hepsin (setting [3]) it was 36.9 nM; on TMPRSS2 (read-out: TMPRSS2 IC50), 15.2 nM.
With `CC(=O)N[C@@H](CO)C(=O)N[C@@H](CCC(N)=O)C(=O)N[C@@H](CC(C)C)C(=O)N[C@@H](CCCNC(=N)N)C(=O)c1nccs1` [ZFH6138, N-[(S)-3-methyl-1-[N-(S)-4-guanidino-1-[(1,3-thiazol-2-yl)carbonyl]butylcarbamoyl]butyl](S)-2-[(S)-2-acetylamino-3-hydroxypropionylamino]glutaramide], the IC50 on HGFA was determined as 364 nM; on matriptase it was 18 nM; at hepsin (read-out: Hepsin IC50), 0.68 nM; at TMPRSS2 (read-out: TMPRSS2 IC50) it was 1.54 nM.
For `CC(=O)N[C@@H](CC(C)C)C(=O)N[C@@H](CC(C)C)C(=O)N[C@@H](CCCNC(=N)N)C(=O)c1nccs1` [ZFH6201-1, N-[(S)-4-guanidino-1-[(1,3-thiazol-2-yl)carbonyl]butyl](S)-2-[(S)-2-acetylamino-4-methylvalerylamino]-4-methylvaleramide], the IC50 was 506 nM at HGFA (read-out: HGFA IC50), 56 nM on matriptase (read-out: Matriptase IC50), 4.6 nM on hepsin (read-out: Hepsin IC50) and 44.2 nM on TMPRSS2 (read-out: TMPRSS2 IC50).
As for `CC(=O)N[C@@H](CCCCN)C(=O)N[C@@H](CCC(N)=O)C(=O)N[C@@H](CC(C)C)C(=O)N[C@@H](CCCNC(=N)N)C(=O)c1nc2ccccc2s1` [ZFH7006, N-[(S)-3-methyl-1-[N-(S)-1-[(1,3-benzothiazol-2-yl)carbonyl]-4-guanidinobutylcarbamoyl]butyl](S)-2-[(S)-1-acetylamino-5-aminopentylcarbonyl-amino]glutaramide], the IC50 at HGFA (setting [1]) was 60 nM; at matriptase (read-out: Matriptase IC50), 1.1 nM; on hepsin (read-out: Hepsin IC50), 0.17 nM; on TMPRSS2 it was 18.1 nM; at Factor Xa, 258 nM.
